Tests used:
[1] = test system: Human immunodeficiency virus 1; experiment: Anti-viral activity was determined; format: functional; settings: read-out: CIC95
[2] = Ratio (CIC95/IC50) of cellular antiviral activity over the isolated enzyme potency; format: functional
[3] = biological target: T1, Human immunodeficiency virus type 1 protease (Human immunodeficiency virus 1, UniProt Q72874); experiment: Inhibitory activity against HIV-1 protease mutant was determined
[4] = biological target: T1, Human immunodeficiency virus type 1 protease; experiment: Inhibitory activity against HIV-1 protease was determined

| SMILES | IC95 [1] [nM] | C/I [2] | IC50 [3] [nM] | IC50 [4] [nM] |
| --- | --- | --- | --- | --- |
| CC(C)(C)OC(=O)N[C@@H](Cc1ccccc1)[C@@H](O)C[C@@H](Cc1ccccc1)C(=O)N[C@H]1c2ccccc2C[C@H]1O | 400 | 1333 |  |  |
| O=C(N[C@@H](Cc1ccccc1)[C@@H](O)C[C@]1(Cc2ccccc2)N=CC(C2CNC(=O)c3ccccc32)=C1O)O[C@H]1CCOC1 (single isomer, unassigned; (+)) | 781 | 137 |  |  |
| NC(=O)O[C@@H]1Cc2ccccc2C1C1=C(O)[C@](Cc2ccccc2)(C[C@H](O)[C@H](Cc2ccccc2)NC(=O)O[C@H]2CCOC2)N=C1 (single isomer, unassigned; (-)) | 250 | 125 | 364 |  |
| O=C(N[C@@H](Cc1ccccc1)[C@@H](O)C[C@@H](Cc1ccccc1)C(=O)N[C@H]1c2ccccc2C[C@H]1O)OC1CCOC1 (stereo partly drawn) | 3 | 100 |  |  |
| CC(C)(C)NC(=O)[C@@H]1CN(Cc2cccnc2)CCN1C[C@@H](O)C[C@@H](Cc1ccccc1)C(=O)N[C@H]1c2ccccc2C[C@H]1O.O | 25 | 69 |  |  |
| CC(C)C[C@@]1(C2=C(O)[C@](Cc3ccccc3)(C[C@H](O)[C@H](Cc3ccccc3)NC(=O)OC(C)(C)C)N=C2)N=CC([C@@H](Cc2ccccc2)C(N)=O)=C1O | 1500 |  |  | 10 |
| CC(C)C[C@@]1(C2=C(O)[C@](Cc3ccccc3)(C[C@H](O)[C@H](Cc3ccccc3)NC(=O)OC3CCOC3)N=C2)N=CC([C@@H](Cc2ccccc2)C(N)=O)=C1O (single isomer, unassigned; (-)) | 800 |  |  | 1.3 |
| O=C(N[C@@H](Cc1ccccc1)[C@@H](O)C[C@]1(Cc2ccccc2)N=CC(C2c3ccccc3C[C@H]2O)=C1O)O[C@H]1CCOC1 (single isomer, unassigned; (-)) | 100 |  | 129 |  |
| CC(C)(C)OC(=O)N[C@@H](Cc1ccccc1)[C@@H](O)C[C@]1(Cc2ccccc2)N=CC(C2c3ccccc3C[C@H]2O)=C1O (single isomer, unassigned; (-)) | 800 |  |  |  |

Source: ChEMBL document CHEMBL1136787, “Design, synthesis, and biological evaluation of monopyrrolinone-based HIV-1 protease inhibitors” (J Med Chem, 2003)
